# Active and inactive are the calls of the source. The calls are words filed in the database; no cut-off is given here.
# Assays:
# [1] = Antiproliferative activity against human QSG7701 cells incubated for 24 hrs by alamar blue assay; assay type: functional, cell-based; settings: QSG7701, 24 h
# SK-HEP1 [2] = experiment: Antiproliferative activity against human SK-HEP1 cells incubated for 24 hrs by alamar blue assay; assay type: functional, cell-based; settings: SK-HEP1, 24 h
# MHCC97 [3] = experiment: Antimetastatic activity against human MHCC97 cells xenografted in SCID mouse assessed as decrease in liver metastasis at 40 mg/kg, ip administered once every 3 days and measured after 10 days; assay type: functional, organism-based; settings: time 10.0 day
# MHCC97 [4] = experiment: Antitumor activity against human MHCC97 cells xenografted in SCID mouse assessed as decrease in tumor size at 20 mg/kg, ip administered once every 3 days and measured after 10 days; assay type: functional, organism-based; settings: time 10.0 day
# MHCC97 [5] = experiment: Antitumor activity in human MHCC97 cells xenografted in SCID mouse assessed as reduction in infiltration of inflammatory cells in left middle lobe of liver at 20 mg/kg, ip measured after 30 days by H and E staining based immunohistochemical analysis; assay type: functional, organism-based; settings: time 30.0 day
# MHCC97 [6] = experiment: Antitumor activity in human MHCC97 cells xenografted in SCID mouse assessed as suppression of tumor growth at 20 mg/kg, ip administered once every 3 day for 30 days by bioluminescence analysis; assay type: functional, organism-based; settings: time 30.0 day
# [7] = Toxicity in SCID mouse xenografted with human MHCC97 cells assessed as increase in body weight at 40 mg/kg, ip administered once every 3 day for 30 days; assay type: organism-based; settings: in vivo, 720 h, time 30 day
# Homo sapiens = species: Homo sapiens; experiment: Binding affinity to PIWIL3 (unknown origin) at 30 uM incubated for 2 hrs by pull down assay
# [8] = molecular target: DNA topoisomerase 2-beta (Homo sapiens) (UniProt Q02880); experiment: Binding affinity to TOP2B (unknown origin) at 30 uM incubated for 2 hrs by pull down assay
# Sequence of DNA topoisomerase 2-beta (Homo sapiens) (Q02880 whole entry): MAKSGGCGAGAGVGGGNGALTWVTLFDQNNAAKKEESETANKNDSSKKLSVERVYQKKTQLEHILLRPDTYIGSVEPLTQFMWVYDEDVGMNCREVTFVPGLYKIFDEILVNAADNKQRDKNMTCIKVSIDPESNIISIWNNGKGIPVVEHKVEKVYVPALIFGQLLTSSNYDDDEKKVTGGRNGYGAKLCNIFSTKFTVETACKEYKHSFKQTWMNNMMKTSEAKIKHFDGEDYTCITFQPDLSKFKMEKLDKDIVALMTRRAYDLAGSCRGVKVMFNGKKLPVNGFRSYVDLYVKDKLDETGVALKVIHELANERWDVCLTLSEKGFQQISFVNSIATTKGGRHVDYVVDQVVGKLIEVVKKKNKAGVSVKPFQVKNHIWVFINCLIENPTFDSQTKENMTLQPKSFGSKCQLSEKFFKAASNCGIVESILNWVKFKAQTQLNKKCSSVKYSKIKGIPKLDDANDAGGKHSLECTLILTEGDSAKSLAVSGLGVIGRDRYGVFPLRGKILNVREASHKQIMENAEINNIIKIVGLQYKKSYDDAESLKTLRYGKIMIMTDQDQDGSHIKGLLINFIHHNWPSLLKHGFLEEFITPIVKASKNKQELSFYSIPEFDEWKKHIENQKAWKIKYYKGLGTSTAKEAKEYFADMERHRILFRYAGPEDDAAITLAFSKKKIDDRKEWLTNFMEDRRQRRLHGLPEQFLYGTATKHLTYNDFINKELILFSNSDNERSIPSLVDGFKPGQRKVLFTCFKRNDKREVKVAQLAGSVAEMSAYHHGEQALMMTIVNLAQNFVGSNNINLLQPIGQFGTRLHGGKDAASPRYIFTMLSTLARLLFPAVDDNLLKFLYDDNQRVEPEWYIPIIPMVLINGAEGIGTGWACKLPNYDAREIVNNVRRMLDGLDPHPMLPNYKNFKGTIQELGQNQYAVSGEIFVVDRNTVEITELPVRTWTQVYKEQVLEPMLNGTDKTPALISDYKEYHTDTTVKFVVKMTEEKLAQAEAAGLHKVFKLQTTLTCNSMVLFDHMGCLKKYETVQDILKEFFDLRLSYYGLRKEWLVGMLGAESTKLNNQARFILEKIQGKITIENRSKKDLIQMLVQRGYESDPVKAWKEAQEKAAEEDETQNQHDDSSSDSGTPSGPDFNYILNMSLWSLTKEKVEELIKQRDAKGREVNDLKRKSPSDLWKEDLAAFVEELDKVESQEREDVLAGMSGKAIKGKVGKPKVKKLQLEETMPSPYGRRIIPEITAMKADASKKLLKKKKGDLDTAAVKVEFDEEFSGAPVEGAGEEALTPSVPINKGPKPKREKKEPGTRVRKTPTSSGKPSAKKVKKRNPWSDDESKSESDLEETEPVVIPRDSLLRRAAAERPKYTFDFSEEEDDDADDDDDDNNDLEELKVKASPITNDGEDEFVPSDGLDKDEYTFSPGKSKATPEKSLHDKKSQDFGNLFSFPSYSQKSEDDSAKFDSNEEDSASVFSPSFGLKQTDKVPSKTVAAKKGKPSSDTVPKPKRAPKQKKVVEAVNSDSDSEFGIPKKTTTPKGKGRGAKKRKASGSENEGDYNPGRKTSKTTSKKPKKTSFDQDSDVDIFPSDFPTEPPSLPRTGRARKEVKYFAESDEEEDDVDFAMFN
# SK-HEP1 [9] = experiment: Inhibition of cell migration in human SK-HEP1 cells assessed as reduction in cell migration at 20 uM measured after 12 hrs using crystal violet staining inverted microscope based transwell assay; assay type: functional
# SK-HEP1 [10] = experiment: Antiproliferative activity against human SK-HEP1 cells at 20 uM measured by crystal violet dye based colony formation assay; assay type: functional, cell-based
# HeLa [11] = experiment: Antiproliferative activity against human HeLa cells assessed as increase in miR-21 biogenesis level measured after 24 hrs by luciferase assay; assay type: functional, cell-based
# Huh-7 = experiment: Antiproliferative activity against human Huh-7 cells at 20 uM incubated for 24 hrs by alamar blue assay; assay type: functional, cell-based
# HeLa [12] = experiment: Antiproliferative activity against human HeLa cells at 20 uM incubated for 24 hrs by alamar blue assay; assay type: functional, cell-based
# MHCC97 [13] = experiment: Antiproliferative activity against human MHCC97 cells at 20 uM incubated for 24 hrs by alamar blue assay; assay type: functional, cell-based
# SK-HEP1 [14] = experiment: Antiproliferative activity against human SK-HEP1 cells at 20 uM incubated for 24 hrs by alamar blue assay; assay type: functional, cell-based
# HepG2 = experiment: Antiproliferative activity against human HepG2 cells at 20 uM incubated for 24 hrs by alamar blue assay; assay type: functional, cell-based
# SK-HEP1 [15] = experiment: Antiproliferative activity against human SK-HEP1 cells assessed as decrease in miR-30a-5p level at 20 uM by qRT-PCR analysis; assay type: functional, cell-based
# SK-HEP1 [16] = experiment: Antiproliferative activity against human SK-HEP1 cells assessed as increase in miR-106b-5p level at 20 uM by qRT-PCR analysis; assay type: functional, cell-based
# SK-HEP1 [17] = experiment: Antiproliferative activity against human SK-HEP1 cells assessed as increase in miR-26a-5p level at 20 uM by qRT-PCR analysis; assay type: functional, cell-based
# SK-HEP1 [18] = experiment: Antiproliferative activity against human SK-HEP1 cells assessed as decrease in miR135a-5p level at 20 uM by qRT-PCR analysis; assay type: functional, cell-based
# SK-HEP1 [19] = experiment: Antiproliferative activity against human SK-HEP1 cells assessed as increase in miR-21-5p level at 20 uM by qRT-PCR analysis; assay type: functional, cell-based
# MHCC97 [20] = experiment: Antimetastatic activity against human MHCC97 cells xenografted in SCID mouse assessed as decrease in liver metastasis at 20 mg/kg, ip administered once every 3 days and measured after 10 days; assay type: functional, organism-based; settings: time 10.0 day
# SK-HEP1 [21] = experiment: Antiproliferative activity against human SK-HEP1 cells assessed as increase in miR-22-5p level at 20 uM by qRT-PCR analysis; assay type: functional, cell-based
SMILES,IC50 (SK-HEP1 [2]) [µM],IC50 [1] [µM],other results
CCN(CC)CCNC(=O)c1cc2c(c(OC)c1-c1ccc(N(C)C)cc1)OCO2,> 100,> 100,–
CNC(=O)c1cc(Oc2ccc(NC(=O)Nc3ccc(Cl)c(C(F)(F)F)c3)cc2)ccn1 [SORAFENIB],–,–,Activity (MHCC97 [3]): Active; Activity (MHCC97 [4]): Active; Activity (MHCC97 [5]): Active; Activity (MHCC97 [6]): Active; Activity [7]: Toxic
COC(=O)c1cc2c(c(OC)c1-c1ccc(N(C)C(=O)[C@H](C)NC(=O)OC(C)(C)C)cc1)OCO2,40.9,59.5,–
COC(=O)c1cc2c(c(OC)c1-c1ccc(N(C)C(=O)CN(C)C(=O)OC(C)(C)C)cc1)OCO2,89.7,> 100,–
COC(=O)c1cc2c(c(OC)c1-c1ccc(N(C)S(=O)(=O)c3ccc([N+](=O)[O-])cc3)cc1)OCO2,34.2,69.3,–
COC(=O)c1cc2c(c(OC)c1-c1ccc(N(C)C(=O)CCCCCNC(=O)CCCC[C@@H]3SC[C@@H]4NC(=O)N[C@@H]43)cc1)OCO2,–,–,Activity (Homo sapiens): inactive; Activity [8]: inactive; inhibition (SK-HEP1 [9]): Active; Activity (SK-HEP1 [10]): Active
COc1c2c(cc(C(=O)Nc3ccccc3)c1-c1ccc(N(C)C)cc1)OCO2,38.4,58.5,–
COc1c2c(cc(C(=O)Nc3ccccc3I)c1-c1ccc(N(C)C)cc1)OCO2,35.8,56.9,–
COC(=O)c1cc2c(c(OC)c1-c1ccc(N(C)C(=O)[C@H](C)N)cc1)OCO2,64.7,74.2,–
COC(=O)c1cc2c(c(OC)c1-c1ccc(N(C)S(C)(=O)=O)cc1)OCO2,47,75.9,–
COC(=O)c1cc2c(c(OC)c1-c1ccc(N(C)C(=O)CN)cc1)OCO2,> 100,> 100,–
CNCC(=O)N(C)c1ccc(-c2c(C(=O)OC)cc3c(c2OC)OCO3)cc1,> 100,> 100,–
COC(=O)c1cc2c(c(OC)c1-c1ccc(N(C)C(=O)CNC(=O)OC(C)(C)C)cc1)OCO2,39.6,63.2,–

# Continued by falling IC50 (SK-HEP1 [2]), values first:
IC50 (SK-HEP1 [2]) [µM],SMILES,IC50 [1] [µM],other results
31.7,COC(=O)c1cc2c(c(OC)c1-c1ccc(N(C)S(=O)(=O)c3ccc(F)cc3)cc1)OCO2,67.9,–
31.6,COc1cccc(NC(=O)c2cc3c(c(OC)c2-c2ccc(N(C)C)cc2)OCO3)c1,64.4,–
29.9,COC(=O)c1cc2c(c(OC)c1-c1ccc(N(C)C)cc1)OCO2,68.5,–
28.7,COC(=O)c1cc2c(c(OC)c1-c1ccc(N(C)S(=O)(=O)c3ccc(Br)cc3)cc1)OCO2,62.4,–
26.7,COC(=O)c1cc2c(c(OC)c1-c1ccc(N(C)S(=O)(=O)c3ccccc3)cc1)OCO2,61.4,IC50 (HeLa [11]): 19.5 µM
25,CCn1cc(C(=O)O)c(=O)c2cc(F)c(N3CCNCC3)nc21 [ENOXACIN],72.4,Activity (SK-HEP1 [15]): inactive; Activity (SK-HEP1 [16]): Active; Activity (SK-HEP1 [17]): Active; IC50 (HeLa [11]): 25.8 µM; Activity (MHCC97 [4]): Active; Activity (SK-HEP1 [18]): inactive; Activity (SK-HEP1 [19]): Active; Activity (MHCC97 [5]): Active; Activity (MHCC97 [20]): inactive; Activity (MHCC97 [6]): Active; Activity (SK-HEP1 [21]): Active
24.4,CNc1ccc(-c2c(C(=O)OC)cc3c(c2OC)OCO3)cc1,67.2,inhibition (SK-HEP1 [9]): Active; IC50 (HeLa [11]): 15.6 µM; Activity (SK-HEP1 [10]): Active
23.6,COc1c2c(cc(C(=O)NCc3ccccc3)c1-c1ccc(N(C)C)cc1)OCO2,56.4,IC50 (HeLa [11]): 21.9 µM
22.7,CNc1ccc(-c2c(C(=O)OC)cc3c(c2OC)OCO3)cc1Cl,50.3,–
19.4,COC(=O)c1cc2c(c(OC)c1-c1ccc(N(C)C(=O)c3ccccc3)cc1)OCO2,48.4,IC50 (HeLa [11]): 13 µM; Activity (Huh-7): Active; Activity (HeLa [12]): Active; Activity (MHCC97 [13]): Active; Activity (SK-HEP1 [14]): Active; Activity (HepG2): Active

# Source: ChEMBL document CHEMBL5038591, “Identification of a Novel TAR RNA-Binding Protein 2 Modulator with Potential Therapeutic Activity against Hepatocellular Carcinoma” (J Med Chem, 2021)
